Experimental data published in patent US10758534B2 (Vertex Pharmaceuticals Incorporated, priority 2014, dated 2020).

Molecular target: T1, F508del (Homo sapiens, UniProt P13569, DEL508-508)
T1 construct: expressed in transfected cells
Assay: Protocol 1: membrane potential optical assay (FLIPR III, voltage sensing dye), identification of potentiator compounds
Assay type: cell-based
Details: Table 3, compounds of Table 1
In short: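 NIH3T3 F508del cells, 27° C × 24 hrs; compound/DMSO pretreat → redistribution dye load → single forskolin addition with Cl⁻ gradient (gluconate-substituted bath, HEPES pH 7.4). FLIPR III membrane-potential fluorescence read.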

T1 sequence (P13569 with tags, fused parts or gaps DEL508-508): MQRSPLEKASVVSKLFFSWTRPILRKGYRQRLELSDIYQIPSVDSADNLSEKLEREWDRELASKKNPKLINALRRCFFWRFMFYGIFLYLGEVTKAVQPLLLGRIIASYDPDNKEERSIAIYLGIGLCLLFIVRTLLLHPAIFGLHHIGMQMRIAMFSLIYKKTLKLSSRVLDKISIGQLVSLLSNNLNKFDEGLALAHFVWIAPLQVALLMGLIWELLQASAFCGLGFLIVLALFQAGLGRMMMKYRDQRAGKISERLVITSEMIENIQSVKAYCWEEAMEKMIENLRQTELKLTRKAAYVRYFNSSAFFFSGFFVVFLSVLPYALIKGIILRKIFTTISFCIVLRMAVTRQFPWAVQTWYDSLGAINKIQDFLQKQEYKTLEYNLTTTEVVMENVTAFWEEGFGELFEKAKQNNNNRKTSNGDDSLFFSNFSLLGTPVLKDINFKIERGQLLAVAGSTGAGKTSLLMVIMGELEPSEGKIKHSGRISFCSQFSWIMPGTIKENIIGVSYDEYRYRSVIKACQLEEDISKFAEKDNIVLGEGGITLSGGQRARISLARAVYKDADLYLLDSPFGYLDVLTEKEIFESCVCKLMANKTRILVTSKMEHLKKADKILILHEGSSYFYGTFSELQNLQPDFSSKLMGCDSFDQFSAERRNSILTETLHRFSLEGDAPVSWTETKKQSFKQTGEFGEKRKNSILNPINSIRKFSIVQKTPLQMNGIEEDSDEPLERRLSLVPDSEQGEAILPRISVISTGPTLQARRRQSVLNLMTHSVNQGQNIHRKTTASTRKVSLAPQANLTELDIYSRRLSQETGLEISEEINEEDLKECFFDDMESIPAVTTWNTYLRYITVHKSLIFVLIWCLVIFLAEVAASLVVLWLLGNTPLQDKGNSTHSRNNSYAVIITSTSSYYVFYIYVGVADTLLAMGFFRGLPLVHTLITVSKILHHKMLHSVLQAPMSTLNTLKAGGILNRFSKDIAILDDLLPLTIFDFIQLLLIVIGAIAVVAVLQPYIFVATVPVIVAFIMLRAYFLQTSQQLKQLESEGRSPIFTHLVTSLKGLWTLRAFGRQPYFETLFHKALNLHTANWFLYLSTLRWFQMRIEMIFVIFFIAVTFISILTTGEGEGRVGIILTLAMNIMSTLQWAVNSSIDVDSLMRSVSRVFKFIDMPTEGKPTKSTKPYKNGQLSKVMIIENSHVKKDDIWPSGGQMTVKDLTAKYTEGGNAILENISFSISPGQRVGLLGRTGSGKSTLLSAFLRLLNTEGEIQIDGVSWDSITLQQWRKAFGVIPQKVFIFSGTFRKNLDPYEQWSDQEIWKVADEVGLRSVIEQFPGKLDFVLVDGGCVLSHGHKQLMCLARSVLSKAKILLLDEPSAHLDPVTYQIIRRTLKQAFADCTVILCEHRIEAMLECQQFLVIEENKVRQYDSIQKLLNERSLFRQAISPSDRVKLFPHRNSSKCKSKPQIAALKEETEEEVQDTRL

SMILES	EC30
CC1CN(c2ncccc2C(=O)NS(=O)(=O)c2cccc(OCc3ccc(Cl)cc3Cl)n2)C(C)(C)C1 (centres unmarked) [Compound 1929, N—[[6-[(2,4-dichlorophenyl)methoxy]-2-pyridyl]sulfonyl]-2-(2,2,4-trimethylpyrrolidin-1-yl)pyridine-3-carboxamide]	+++ (“+++” means <3 uM)
Cc1cc(-c2ccc(C(=O)NS(=O)(=O)c3cccc(N)n3)c(N3C[C@@H](C)CC3(C)C)n2)ccc1F [Compound 1930, N-[(6-amino-2-pyridyl)sulfonyl]-6-(4-fluoro-3-methyl-phenyl)-2-[(4S)-2,2,4-trimethylpyrrolidin-1-yl]pyridine-3-carboxamide]	+++ (“+++” means <3 uM)
CCOc1cc(-c2ccc(C(=O)NS(=O)(=O)c3cccc(N)n3)c(N3C[C@@H](C)CC3(C)C)n2)cc(C)c1C [Compound 1931, N-[(6-amino-2-pyridyl)sulfonyl]-6-(3-ethoxy-4,5-dimethyl-phenyl)-2-[(4S)-2,2,4-trimethylpyrrolidin-1-yl]pyridine-3-carboxamide]	+++ (“+++” means <3 uM)
CC1CN(c2ncccc2C(=O)NS(=O)(=O)c2cccc(N3CCCCCC3)n2)C(C)(C)C1 (centres unmarked) [Compound 1932, N—[[6-(azepan-1-yl)-2-pyridyl]sulfonyl]-2-(2,2,4-trimethylpyrrolidin-1-yl)pyridine-3-carboxamide]	+++ (“+++” means <3 uM)
CC1CN(c2ncccc2C(=O)NS(=O)(=O)c2cccc(Nc3cc4ccccc4cn3)n2)C(C)(C)C1 (centres unmarked) [Compound 1933, N—[[6-(3-isoquinolylamino)-2-pyridyl]sulfonyl]-2-(2,2,4-trimethylpyrrolidin-1-yl)pyridine-3-carboxamide]	+++ (“+++” means <3 uM)
C[C@@H]1CN(c2nc(-c3cccc(OC(F)(F)F)c3)ccc2C(=O)NS(=O)(=O)c2ccc[nH]c2=O)C(C)(C)C1 [Compound 1934, N-[(2-oxo-1H-pyridin-3-yl)sulfonyl]-6-[3-(trifluoromethoxy)phenyl]-2-[(4S)-2,2,4-trimethylpyrrolidin-1-yl]pyridine-3-carboxamide]	+++ (“+++” means <3 uM)
CC(C)COc1cc(F)cc(-c2ccc(C(=O)NS(=O)(=O)N[C@H]3CCNC3)c(N3C[C@@H](C)CC3(C)C)n2)c1 [Compound 1935, 6-(3-fluoro-5-isobutoxy-phenyl)-N—[[(3S)-pyrrolidin-3-yl]sulfamoyl]-2-[(4S)-2,2,4-trimethylpyrrolidin-1-yl]pyridine-3-carboxamide]	+++ (“+++” means <3 uM)
CC1CN(c2ncccc2C(=O)NS(=O)(=O)c2cccc(OC3(C)CCCC3)n2)C(C)(C)C1 (centres unmarked) [Compound 1936, N—[[6-(1-methylcyclopentoxy)-2-pyridyl]sulfonyl]-2-(2,2,4-trimethylpyrrolidin-1-yl)pyridine-3-carboxamide]	+++ (“+++” means <3 uM)
CC1CN(c2ncccc2C(=O)NS(=O)(=O)c2cccc(N3CCN(CC4OCCO4)CC3)n2)C(C)(C)C1 (centres unmarked) [Compound 1937, N—[[6-[4-(1,3-dioxolan-2-ylmethyl)piperazin-1-yl]-2-pyridyl]sulfonyl]-2-(2,2,4-trimethylpyrrolidin-1-yl)pyridine-3-carboxamide]	++ (“++” means between 3 uM and 10 uM)
CC1CN(c2ncccc2C(=O)NS(=O)(=O)c2cccc(NCc3ccccc3)n2)C(C)(C)C1 (centres unmarked) [Compound 1938, N—[[6-(benzylamino)-2-pyridyl]sulfonyl]-2-(2,2,4-trimethylpyrrolidin-1-yl)pyridine-3-carboxamide]	+++ (“+++” means <3 uM)
CC1CN(c2ncccc2C(=O)NS(=O)(=O)c2cccc(OCC3CCCCO3)n2)C(C)(C)C1 (centres unmarked) [Compound 1939, N—[[6-(tetrahydropyran-2-ylmethoxy)-2-pyridyl]sulfonyl]-2-(2,2,4-trimethylpyrrolidin-1-yl)pyridine-3-carboxamide]	++ (“++” means between 3 uM and 10 uM)
COc1cccc(CN(C)c2cccc(S(=O)(=O)NC(=O)c3cccnc3N3CC(C)CC3(C)C)n2)c1 (centres unmarked) [Compound 1940, N—[[6-[(3-methoxyphenyl)methyl-methyl-amino]-2-pyridyl]sulfonyl]-2-(2,2,4-trimethylpyrrolidin-1-yl)pyridine-3-carboxamide]	+++ (“+++” means <3 uM)
CC1CN(c2ncccc2C(=O)NS(=O)(=O)c2cccc(Nc3cc(F)ccc3Cl)n2)C(C)(C)C1 (centres unmarked) [Compound 1941, N—[[6-(2-chloro-5-fluoro-anilino)-2-pyridyl]sulfonyl]-2-(2,2,4-trimethylpyrrolidin-1-yl)pyridine-3-carboxamide]	+++ (“+++” means <3 uM)
C[C@@H]1CN(c2nc(C3=CCCN(S(=O)(=O)N4CCCCC4)C3)ccc2C(=O)NS(=O)(=O)c2cccc(N)n2)C(C)(C)C1 [Compound 1942, N-[(6-amino-2-pyridyl)sulfonyl]-6-[1-(1-piperidylsulfonyl)-3,6-dihydro-2H-pyridin-5-yl]-2-[(4S)-2,2,4-trimethylpyrrolidin-1-yl]pyridine-3-carboxamide]	++ (“++” means between 3 uM and 10 uM)
COCCOCc1cccc(-c2cnc(N3CC(C)CC3(C)C)c(C(=O)NS(=O)(=O)c3cccc(N)n3)c2)c1 (centres unmarked) [Compound 1943, N-[(6-amino-2-pyridyl)sulfonyl]-5-[3-(2-methoxyethoxymethyl)phenyl]-2-(2,2,4-trimethylpyrrolidin-1-yl)pyridine-3-carboxamide]	++ (“++” means between 3 uM and 10 uM)
Cc1c(F)cccc1-c1ccc(C(=O)NS(=O)(=O)c2cccnc2N)c(N2C[C@@H](C)CC2(C)C)n1 [Compound 1944, N-[(2-amino-3-pyridyl)sulfonyl]-6-(3-fluoro-2-methyl-phenyl)-2-[(4S)-2,2,4-trimethylpyrrolidin-1-yl]pyridine-3-carboxamide]	+++ (“+++” means <3 uM)
CCOc1ccc(-c2ccc(C(=O)NS(=O)(=O)c3cccnc3N)c(N3C[C@@H](C)CC3(C)C)n2)cc1 [Compound 1945, N-[(2-amino-3-pyridyl)sulfonyl]-6-(4-ethoxyphenyl)-2-[(4S)-2,2,4-trimethylpyrrolidin-1-yl]pyridine-3-carboxamide]	+++ (“+++” means <3 uM)
Cc1ccc(F)c(-c2ccc(C(=O)NS(=O)(=O)c3ccc[nH]c3=O)c(N3C[C@@H](C)CC3(C)C)n2)c1 [Compound 1946, 6-(2-fluoro-5-methyl-phenyl)-N-[(2-oxo-1H-pyridin-3-yl)sulfonyl]-2-[(4S)-2,2,4-trimethylpyrrolidin-1-yl]pyridine-3-carboxamide]	+++ (“+++” means <3 uM)
C[C@@H]1CN(c2nc(-c3ccc(F)cc3F)ccc2C(=O)NS(=O)(=O)N2CC[C@H](N)C2)C(C)(C)C1 [Compound 1947, N-[(3S)-3-aminopyrrolidin-1-yl]sulfonyl-6-(2,4-difluorophenyl)-2-[(4S)-2,2,4-trimethylpyrrolidin-1-yl]pyridine-3-carboxamide]	++ (“++” means between 3 uM and 10 uM)
CCOCCOc1cc(-c2ccc(C(=O)NS(=O)(=O)c3cccc(N)n3)c(N3C[C@@H](C)CC3(C)C)n2)cc(C)n1 [Compound 1948, N-[(6-amino-2-pyridyl)sulfonyl]-6-[2-(2-ethoxyethoxy)-6-methyl-4-pyridyl]-2-[(4S)-2,2,4-trimethylpyrrolidin-1-yl]pyridine-3-carboxamide]	+++ (“+++” means <3 uM)
